Experimental data published in PMC9329436, “Optimization of the 4-anilinoquin(az)oline scaffold as epidermal growth factor receptor (EGFR) inhibitors for chordoma utilizing a toxicology profiling assay platform” (Scientific Reports, 2022).
Read-outs that look alike come from different tables or passages of the source.

Tests used:
Type in all cases: biochemical
[1] = target: T1, 320 wild-type protein kinases (Homo sapiens, UniProt Q13976); conditions: kinase PRKG1, singlicate
T1 sequence (Q13976 1-671): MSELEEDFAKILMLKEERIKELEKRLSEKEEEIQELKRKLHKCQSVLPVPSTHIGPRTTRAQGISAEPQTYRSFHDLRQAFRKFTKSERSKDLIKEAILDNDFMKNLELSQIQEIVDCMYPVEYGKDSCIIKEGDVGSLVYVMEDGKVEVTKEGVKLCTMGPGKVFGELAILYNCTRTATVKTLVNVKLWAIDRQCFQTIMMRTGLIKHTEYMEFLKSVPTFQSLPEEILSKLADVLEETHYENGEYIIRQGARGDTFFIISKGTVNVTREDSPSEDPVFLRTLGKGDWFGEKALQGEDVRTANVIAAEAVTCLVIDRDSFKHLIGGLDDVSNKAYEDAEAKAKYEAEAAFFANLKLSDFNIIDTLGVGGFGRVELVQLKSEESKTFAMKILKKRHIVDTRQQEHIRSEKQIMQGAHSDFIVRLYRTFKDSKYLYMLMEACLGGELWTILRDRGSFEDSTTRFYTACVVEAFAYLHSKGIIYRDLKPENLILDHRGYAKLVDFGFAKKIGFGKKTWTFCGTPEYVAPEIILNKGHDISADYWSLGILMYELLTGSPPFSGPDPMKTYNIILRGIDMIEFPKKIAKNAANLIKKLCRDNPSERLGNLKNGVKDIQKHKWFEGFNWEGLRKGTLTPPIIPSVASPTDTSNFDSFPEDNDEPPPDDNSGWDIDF
From the text: (§1) Table S4. Profiling of two compounds at two concentrations against 320 wild-type protein kinases; singlicate measurement; Residual activities (% of control).

[2] = target: T2, 320 wild-type protein kinases (Homo sapiens, UniProt Q13163); conditions: singlicate
T2 sequence (Q13163 1-448): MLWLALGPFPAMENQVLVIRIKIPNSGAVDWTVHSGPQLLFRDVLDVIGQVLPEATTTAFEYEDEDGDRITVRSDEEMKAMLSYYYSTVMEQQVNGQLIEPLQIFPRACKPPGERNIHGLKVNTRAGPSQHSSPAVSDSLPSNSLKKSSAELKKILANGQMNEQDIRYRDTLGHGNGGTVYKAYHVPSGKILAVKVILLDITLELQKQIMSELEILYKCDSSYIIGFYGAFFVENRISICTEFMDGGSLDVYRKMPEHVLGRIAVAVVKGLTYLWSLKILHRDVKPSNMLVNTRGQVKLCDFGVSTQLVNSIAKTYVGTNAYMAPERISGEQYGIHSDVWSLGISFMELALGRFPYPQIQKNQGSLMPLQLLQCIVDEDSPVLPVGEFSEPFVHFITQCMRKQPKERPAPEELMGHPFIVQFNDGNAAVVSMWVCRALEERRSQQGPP
From the text: as §1

[3] = target: T3, 320 wild-type protein kinases (Homo sapiens, UniProt Q9BZL6); conditions: singlicate
T3 sequence (Q9BZL6 1-878): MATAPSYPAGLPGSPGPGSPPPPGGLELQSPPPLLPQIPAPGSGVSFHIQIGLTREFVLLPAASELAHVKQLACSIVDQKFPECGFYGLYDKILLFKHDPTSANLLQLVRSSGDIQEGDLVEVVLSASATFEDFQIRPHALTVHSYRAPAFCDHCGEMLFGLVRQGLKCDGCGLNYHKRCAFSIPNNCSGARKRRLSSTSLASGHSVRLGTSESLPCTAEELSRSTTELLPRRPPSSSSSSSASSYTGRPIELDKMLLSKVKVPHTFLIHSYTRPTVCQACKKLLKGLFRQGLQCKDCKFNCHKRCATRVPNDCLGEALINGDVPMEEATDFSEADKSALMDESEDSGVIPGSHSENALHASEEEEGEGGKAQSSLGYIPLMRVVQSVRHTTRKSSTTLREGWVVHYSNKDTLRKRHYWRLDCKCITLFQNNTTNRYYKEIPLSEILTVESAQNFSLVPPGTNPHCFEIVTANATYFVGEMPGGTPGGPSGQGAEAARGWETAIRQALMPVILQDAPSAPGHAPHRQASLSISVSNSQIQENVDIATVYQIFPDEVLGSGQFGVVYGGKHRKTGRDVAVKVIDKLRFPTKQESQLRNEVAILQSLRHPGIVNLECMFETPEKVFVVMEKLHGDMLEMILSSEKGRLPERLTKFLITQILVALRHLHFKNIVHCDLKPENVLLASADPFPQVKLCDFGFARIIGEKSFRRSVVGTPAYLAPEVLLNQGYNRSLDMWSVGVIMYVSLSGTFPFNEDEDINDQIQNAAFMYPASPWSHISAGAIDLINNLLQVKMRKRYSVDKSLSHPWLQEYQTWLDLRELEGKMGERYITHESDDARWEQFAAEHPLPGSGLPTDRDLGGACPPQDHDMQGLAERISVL
From the text: as §1

| SMILES | Residual activity, PRKG1 ([1]; assay conc. 1.0E-06 M) | Residual activity, PRKG1 ([1]; assay conc. 1.0E-07 M) | Residual activity ([2]; MEK5, 1.0E-06 M) | Residual activity ([2]; MEK5, 1.0E-07 M) | Residual activity ([3]; PRKD2, 1.0E-06 M) | Residual activity ([3]; PRKD2, 1.0E-07 M) |
| --- | --- | --- | --- | --- | --- | --- |
| C#Cc1cc(Nc2ncnc3cc(I)ccc23)ccc1Cl [Compound 41] | 72 % of control | 88 % of control | 100 % of control | 103 % of control | 84 % of control | 97 % of control |
| C#Cc1cc(Nc2ncnc3cc(OC)c(OC)cc23)ccc1Cl [Compound 45] | 101 % of control | 106 % of control | 108 % of control | 107 % of control | 73 % of control | 80 % of control |
